22 compounds from patent publication US10689414B2 (Agios Pharmaceuticals, Inc., priority 2013, dated 2020) can be followed below.

In the experiment the test system is U87MG cells. In words: Cellular assay, inhibition of 2-HG production in U87MG cells. It counts as cell-based. The method in brief: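 HT1080 or U87MG cells (U87MG kept with 500 ug/mL G418) seeded at 5000 cells/well and treated with compound at 0.2% final DMSO. Incubated 48 h at 37 °C. 2-HG inhibition determined by LC-MS. Viability read by CellTiter-Glo luminescence at 72 h post-dose.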

In general, IC50 refers to the concentration at which inhibition is half-maximal. Low values mean greater potency, high ones weaker potency. Consider `N#Cc1cc(F)cc(N(C(=O)[C@@H]2CCC(=O)N2c2cc(C#N)ccn2)[C@H](C(=O)NC2CCC(F)(F)CC2)c2ccccc2Cl)c1` [Compound 184, (S)—N—((S)-1-(2-Chlorophenyl)-2-(4,4-difluorocyclohexylamino)-2-oxoethyl)-N-(3-cyano-5-fluorophenyl)-1-(4-cyanopyridin-2-yl)-5-oxopyrrolidine-2-carboxamide], for which the IC50 (Homo sapiens, U-87 MG, 48 h) is below 0.1 µM.

`N#Cc1cc(F)cc(N(C(=O)[C@@H]2CCC(=O)N2c2nccc(C#N)n2)[C@H](C(=O)NC2CCC(F)(F)CC2)c2ccccc2Cl)c1` [Compound 185, (S)—N—((S)-1-(2-Chlorophenyl)-2-((4,4-difluorocyclohexyl)amino)-2-oxoethyl)-N-(3-cyano-5-fluorophenyl)-1-(4-cyanopyrimidin-2-yl)-5-oxopyrrolidine-2-carboxamide] showed an IC50 (Homo sapiens, U-87 MG, 48 h) below 0.1 µM.

For `N#Cc1ccnc(N2C(=O)CC[C@H]2C(=O)N(c2ccccc2F)[C@H](C(=O)NC2CC(F)(F)C2)c2ccccc2Cl)c1` [Compound 187, (S)—N—((S)-1-(2-Chlorophenyl)-2-((3,3-difluorocyclobutyl)amino)-2-oxoethyl)-1-(4-cyanopyridin-2-yl)-N-(2-fluorophenyl)-5-oxopyrrolidine-2-carboxamide], the IC50 (Homo sapiens, U-87 MG, 48 h) was below 0.1 µM.

Regarding `N#Cc1ccnc(N2C(=O)CC[C@H]2C(=O)N(c2cccc(F)c2F)[C@H](C(=O)NC2CC(F)(F)C2)c2ccccc2Cl)c1` [Compound 188, (S)—N—((S)-1-(2-Chlorophenyl)-2-((3,3-difluorocyclobutyl)amino)-2-oxoethyl)-1-(4-cyanopyridin-2-yl)-N-(2,3-difluorophenyl)-5-oxopyrrolidine-2-carboxamide], the IC50 (Homo sapiens, U-87 MG, 48 h) was below 0.1 µM.

With `N#Cc1ccnc(N2C(=O)[C@@H](O)C[C@H]2C(=O)N(c2cccc(F)c2)[C@H](C(=O)NC2CCC(F)(F)CC2)c2ccccc2Cl)n1` [Compound 189, (2S,4S)—N—((S)-1-(2-Chlorophenyl)-2-((4,4-difluorocyclohexyl)amino)-2-oxoethyl)-1-(4-cyanopyrimidin-2-yl)-N-(3-fluorophenyl)-4-hydroxy-5-oxopyrrolidine-2-carboxamide], where the note is “Homo sapiens, U-87 MG, 48 h”, the IC50 was below 0.1 µM.

For `C[S@+]([O-])c1cc(F)cc(N(C(=O)[C@@H]2CCC(=O)N2c2cc(C#N)ccn2)[C@H](C(=O)NC2CC(F)(F)C2)c2ccccc2Cl)c1` [Compound 190, (S)—N—((S)-1-(2-Chlorophenyl)-2-(3,3-difluorocyclobutylamino)-2-oxoethyl)-1-(4-cyanopyridin-2-yl)-N-(3-fluoro-5-((S)-methylsulfinyl)phenyl)-5-oxopyrrolidine-2-carboxamide], the IC50 (Homo sapiens, U-87 MG, 48 h) is below 0.1 µM.

With `N#Cc1cc(C#N)cc(N(C(=O)[C@@H]2CCC(=O)N2c2cc(C#N)ccn2)C(C(=O)NC2CC(F)(F)C2)c2ccccc2Cl)c1` (stereo partly drawn) [Compound 191, (2S)—N-(1-(2-Chlorophenyl)-2-((3,3-difluorocyclobutyl)amino)-2-oxoethyl)-1-(4-cyanopyridin-2-yl)-N-(3,5-dicyanophenyl)-5-oxopyrrolidine-2-carboxamide], the IC50 (Homo sapiens, U-87 MG, 48 h) was below 0.1 µM.

`N#Cc1ccnc(N2C(=O)CC[C@H]2C(=O)N(c2cncc(F)c2)[C@H](C(=O)NC2CCC(F)(F)CC2)c2ccccc2Cl)c1` [Compound 193, (S)—N—((S)-1-(2-Chlorophenyl)-2-(4,4-difluorocyclohexylamino)-2-oxoethyl)-1-(4-cyanopyridin-2-yl)-N-(5-fluoropyridin-3-yl)-5-oxopyrrolidine-2-carboxamide] had an IC50 (Homo sapiens, U-87 MG, 48 h) below 0.1 µM.

For the compound `N#Cc1ccnc(N2C(=O)CC[C@H]2C(=O)N(c2cccc(OC(F)F)c2)[C@H](C(=O)NC2CC(F)(F)C2)c2ccccc2Cl)n1` [Compound 194, (S)—N—((S)-1-(2-Chlorophenyl)-2-((3,3-difluorocyclobutyl)amino)-2-oxoethyl)-1-(4-cyanopyrimidin-2-yl)-N-(3-(difluoromethoxy)phenyl)-5-oxopyrrolidine-2-carboxamide], for the setting “Homo sapiens, U-87 MG, 48 h”, the IC50 is below 0.1 µM.

For `N#Cc1ccnc(N2C(=O)CC[C@H]2C(=O)N(c2cc(F)cc(F)c2)C(C(=O)NC2CC(F)(F)C2)c2cccc(Cl)c2Cl)c1` (stereo partly drawn) [Compound 195, (2S)-1-(4-Cyanopyridin-2-yl)-N-(1-(2,3-dichlorophenyl)-2-(3,3-difluoro-cyclobutylamino)-2-oxoethyl)-N-(3,5-difluorophenyl)-5-oxopyrrolidine-2-carboxamide], the IC50 (Homo sapiens, U-87 MG, 48 h) is below 0.1 µM.

`N#Cc1ccnc(N2C(=O)CC[C@H]2C(=O)N(c2cc(F)ccc2F)[C@H](C(=O)NC2CC(F)(F)C2)c2ccccc2Cl)c1` [Compound 197, (S)—N—((S)-1-(2-Chlorophenyl)-2-((3,3-difluorocyclobutyl)amino)-2-oxoethyl)-1-(4-cyanopyridin-2-yl)-N-(2,5-difluorophenyl)-5-oxopyrrolidine-2-carboxamide] gave an IC50 (Homo sapiens, U-87 MG, 48 h) below 0.1 µM.

Turning to `N#Cc1ccnc(N2C(=O)CC[C@H]2C(=O)N(c2cc(F)cc(F)c2)[C@H](C(=O)NC2CC(F)(F)C2)c2ncccc2Cl)c1` [Compound 198, (S)—N—((S)-1-(3-Chloropyridin-2-yl)-2-(3,3-difluorocyclobutylamino)-2-oxoethyl)-1-(4-cyanopyridin-2-yl)-N-(3,5-difluorophenyl)-5-oxopyrrolidine-2-carboxamide], under “Homo sapiens, U-87 MG, 48 h”, the IC50 was below 0.1 µM.

On to `N#Cc1ccnc(N2C(=O)CC[C@H]2C(=O)N(c2cc(F)cc(F)c2)[C@H](C(=O)NC2CC(F)(F)C2)c2c(Cl)cccc2Cl)c1` [Compound 199, (S)-1-(4-Cyanopyridin-2-yl)-N—((S)-1-(2,6-dichlorophenyl)-2-((3,3-difluorocyclobutyl)amino)-2-oxoethyl)-N-(3,5-difluorophenyl)-5-oxopyrrolidine-2-carboxamide], for which, for the setting “Homo sapiens, U-87 MG, 48 h”, the IC50 is below 0.1 µM.

`N#Cc1ccnc(N2C(=O)CC[C@H]2C(=O)N(c2cc(F)cc(F)c2)[C@H](C(=O)NC2CC(F)(F)C2)c2cc(Cl)ccc2Cl)c1` [Compound 201, (S)-1-(4-Cyanopyridin-2-yl)-N—((S)-1-(2,5-dichlorophenyl)-2-((3,3-difluorocyclobutyl)-amino)-2-oxoethyl)-N-(3,5-difluorophenyl)-5-oxopyrrolidine-2-carboxamide]: under “Homo sapiens, U-87 MG, 48 h”, the IC50 was below 0.1 µM.

Compound `N#Cc1ccnc(N2C(=O)CC[C@H]2C(=O)N(c2cc(F)cc(C3CC3)c2)[C@H](C(=O)NC2CCC(F)(F)CC2)c2ccccc2Cl)c1` [Compound 202, (S)—N—((S)-1-(2-Chlorophenyl)-2-((4,4-difluorocyclohexyl)amino)-2-oxoethyl)-1-(4-cyanopyridin-2-yl)-N-(3-cyclopropyl-5-fluorophenyl)-5-oxopyrrolidine-2-carboxamide] returned an IC50 (Homo sapiens, U-87 MG, 48 h) below 0.1 µM.

`N#Cc1ccnc(N2C(=O)CC[C@H]2C(=O)N(c2ccc3[nH]ncc3c2)[C@H](C(=O)NC2CCC(F)(F)CC2)c2ccccc2Cl)c1` [Compound 203, (S)—N—((S)-1-(2-Chlorophenyl)-2-((4,4-difluorocyclohexyl)amino)-2-oxoethyl)-1-(4-cyanopyridin-2-yl)-N-(1H-indazol-5-yl)-5-oxopyrrolidine-2-carboxamide]: the IC50 (Homo sapiens, U-87 MG, 48 h) was below 0.1 µM.

For the setting “Homo sapiens, U-87 MG, 48 h”, `N#Cc1ccnc(N2C(=O)CC[C@H]2C(=O)N(c2cc(F)cc(C3CC3)c2)[C@H](C(=O)NC2CC(F)(F)C2)c2ccccc2Cl)c1` [Compound 204, (S)—N—((S)-1-(2-Chlorophenyl)-2-((3,3-difluorocyclobutyl)amino)-2-oxoethyl)-1-(4-cyanopyri-din-2-yl)-N-(3-cyclopropyl-5-fluorophenyl)-5-oxopyrrolidine-2-carboxamide] gave an IC50 below 0.1 µM.

Where the note is “Homo sapiens, U-87 MG, 48 h”, `N#Cc1ccnc(N2C(=O)CC[C@H]2C(=O)N(c2ccc3[nH]ccc3c2)[C@H](C(=O)NC2CC(F)(F)C2)c2ccccc2Cl)c1` [Compound 206, (S)—N—((S)-1-(2-Chlorophenyl)-2-((3,3-difluorocyclobutyl)amino)-2-oxoethyl)-1-(4-cyanopyridin-2-yl)-N-(1H-indol-5-yl)-5-oxopyrrolidine-2-carboxamide] displayed an IC50 below 0.1 µM.

With `N#Cc1cc(F)cc(N(C(=O)[C@@H]2CCC(=O)N2c2cc(C#N)ccn2)[C@H](C(=O)NC2CC(F)(F)C2)c2ccccc2F)c1` [Compound 207, (S)—N-(3-Cyano-5-fluorophenyl)-1-(4-cyanopyridin-2-yl)-N—((S)-2-((3,3-difluorocyclobutyl)amino)-1-(2-fluorophenyl)-2-oxoethyl)-5-oxopyrrolidine-2-carboxamide], the IC50 (Homo sapiens, U-87 MG, 48 h) was below 0.1 µM.

In the case of `N#Cc1ccnc(N2C(=O)CC[C@H]2C(=O)N(c2cc(F)cc(F)c2)[C@H](C(=O)NC2CC(F)(F)C2)c2ccccc2)c1` [Compound 210, (S)-1-(4-Cyanopyridin-2-yl)-N—((S)-2-(3,3-difluorocyclobutylamino)-2-oxo-1-phenylethyl)-N-(3,5-difluorophenyl)-5-oxopyrrolidine-2-carboxamide], the IC50 (Homo sapiens, U-87 MG, 48 h) is below 0.1 µM.

`N#Cc1cc(F)cc(N(C(=O)[C@@H]2CCC(=O)N2c2cc(C#N)ccn2)[C@H](C(=O)NC2CC(F)(F)C2)c2ccccc2)c1` [Compound 211, (S)—N-(3-Cyano-5-fluorophenyl)-1-(4-cyanopyridin-2-yl)-N—((S)-2-(3,3-difluorocyclobutyl-amino)-2-oxo-1-phenylethyl)-5-oxopyrrolidine-2-carboxamide] showed an IC50 (Homo sapiens, U-87 MG, 48 h) below 0.1 µM.

In the case of “(S)—N—((S)-1-(2-Chlorophenyl)-2-((4,4-difluorocyclohexyl)amino)-2-oxoethyl)-1-(4-cyanopyridin-2-yl)-N-(1H-indazol-6-yl)-5-oxopyrrolidine-2-carboxamide [Compound 136]”, the IC50 (inhibition of 2-HG production, U87MG cells, 48 hours) was below 0.1 µM.
